From ChEMBL document CHEMBL1201862, “PubChem BioAssay data set” (2004) come the findings set out here.

The source made the active and inactive calls.

Test [1] concerns the target T1, Estrogen receptor beta (Homo sapiens, UniProt Q92731). The experiment in a line: ERβ–SRC-3 coactivator interaction inhibitors, confirmation, orthogonal assay, biochemical, ELISA, streptavidin-HRP readout (AID 1060). For orientation: In an ELISA, binding on a coated surface is turned into a signal by an enzyme label.
Test [2] addresses T1, Estrogen receptor beta.
The next test has as its target T2, Estrogen receptor (Homo sapiens, UniProt P03372).
T2 sequence (P03372 whole entry): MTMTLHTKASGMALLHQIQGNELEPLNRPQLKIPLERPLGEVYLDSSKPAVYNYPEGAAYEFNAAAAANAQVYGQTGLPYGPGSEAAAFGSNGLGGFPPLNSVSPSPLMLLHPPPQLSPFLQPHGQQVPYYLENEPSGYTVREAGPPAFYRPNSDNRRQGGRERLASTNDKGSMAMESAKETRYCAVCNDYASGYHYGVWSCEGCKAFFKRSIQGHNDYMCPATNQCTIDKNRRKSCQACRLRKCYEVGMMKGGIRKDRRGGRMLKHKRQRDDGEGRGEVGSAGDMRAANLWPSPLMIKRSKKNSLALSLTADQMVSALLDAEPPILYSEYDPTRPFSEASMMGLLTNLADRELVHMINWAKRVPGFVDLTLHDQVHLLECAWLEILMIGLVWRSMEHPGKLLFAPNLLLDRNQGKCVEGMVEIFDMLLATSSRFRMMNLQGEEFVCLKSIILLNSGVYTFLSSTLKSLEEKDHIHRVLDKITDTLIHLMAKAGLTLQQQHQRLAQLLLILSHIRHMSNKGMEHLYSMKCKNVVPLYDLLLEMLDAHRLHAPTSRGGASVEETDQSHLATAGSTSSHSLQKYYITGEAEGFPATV

Test [3] addresses T3, Alkaline phosphatase, tissue-nonspecific isozyme (Homo sapiens, UniProt P05186).
T3 sequence (P05186 whole entry): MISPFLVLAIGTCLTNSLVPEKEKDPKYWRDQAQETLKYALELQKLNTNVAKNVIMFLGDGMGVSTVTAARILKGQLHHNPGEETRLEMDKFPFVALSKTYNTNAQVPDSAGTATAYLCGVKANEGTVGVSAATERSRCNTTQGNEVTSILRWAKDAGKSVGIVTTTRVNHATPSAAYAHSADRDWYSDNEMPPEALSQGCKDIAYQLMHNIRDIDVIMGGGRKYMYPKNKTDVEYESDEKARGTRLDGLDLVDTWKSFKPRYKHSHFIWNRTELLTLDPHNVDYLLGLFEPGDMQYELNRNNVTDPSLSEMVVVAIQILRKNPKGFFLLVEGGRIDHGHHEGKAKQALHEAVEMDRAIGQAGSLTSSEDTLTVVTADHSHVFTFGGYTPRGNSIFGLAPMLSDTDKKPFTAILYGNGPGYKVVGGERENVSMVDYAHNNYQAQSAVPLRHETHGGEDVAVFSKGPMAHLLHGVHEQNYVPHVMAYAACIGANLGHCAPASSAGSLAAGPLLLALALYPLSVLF

Test [4] in a line: M. tuberculosis H37Rv growth inhibitors, H37Rv strain (AID 1626). It counts as functional.
A further test concerns the target Cytochrome P450 2C9 (Homo sapiens, UniProt P11712).
The next test has as its system H9c2. The experiment in a line: cells. The note with it: Rattus norvegicus, H9c2, Myocardium. Format: functional, cell-based.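 Note: confirmatory concentration-response retest of ultra-high-throughput screening hits for modulation of myocardial damage; cell death induced by hydrogen peroxide oxidative stress; compound pretreatment for 60 min then peroxide exposure for 2 h; potency is for protecting the cells against peroxide damage rather than for killing them.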
The next test has as its system INS1. The experiment in a line: beta cell apoptosis inhibitors, cytokine rescue, dose response, luminescence, retest (AID 449756).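 Note: cell death triggered by IL-1 beta plus TNF-alpha plus IFN-gamma mixture; protective hits raise ATP signal compared with cytokine alone wells.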 It counts as functional, cell-based. The note with it: Rattus norvegicus.
Test [5] can be described thus: Luminescence Cell-Based Dose Response HTS to Identify Activators of Luciferase Translation or Activity in H4 […] Cells. [Related pubchem assays: 1829 (Project Summary), 1814 (Primary HTS)]. Format: functional.
In the next test the test system is H4. The experiment in a line: Luminescence Cell-Based Dose Response HTS to Identify Activators of 5'UTR Stem-Loop Driven Prion Protein mRNA Translation in H4 Neuroglioblastoma Cells. [Related pubchem assays: 1829 (Project Summary), 1814 (Primary HTS)]. It counts as functional. The note with it: Homo sapiens.
The target in test [6] is Alkaline phosphatase, placental type (Homo sapiens, UniProt P05187). The experiment in a line: PLAP enzyme inhibitors, confirmation, biochemical, luminescence (AID 1512). It counts as functional.
For test [7], the target named is T4, Tyrosine-protein phosphatase non-receptor type 7 (Homo sapiens, UniProt P35236).
T4 sequence (P35236 whole entry): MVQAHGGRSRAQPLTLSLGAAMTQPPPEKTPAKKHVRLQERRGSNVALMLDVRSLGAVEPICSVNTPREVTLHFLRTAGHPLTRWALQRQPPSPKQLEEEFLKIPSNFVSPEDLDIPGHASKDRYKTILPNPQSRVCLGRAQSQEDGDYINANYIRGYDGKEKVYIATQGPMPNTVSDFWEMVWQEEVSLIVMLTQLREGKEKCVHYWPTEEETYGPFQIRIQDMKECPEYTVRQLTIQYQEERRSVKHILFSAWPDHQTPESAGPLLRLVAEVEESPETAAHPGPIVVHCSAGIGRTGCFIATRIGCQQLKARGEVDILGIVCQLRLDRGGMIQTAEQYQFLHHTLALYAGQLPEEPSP
Put plainly: SAR analysis of chemical inhibitors of HePTP using a Fluorescent assay - Set 2. [Related pubchem assays (depositor defined):AID1059, AID1077, AID1661, AID2085, AID521]. Format: functional.

Test [8] in a line: Luminescence Cell-Based Dose Confirmation HTS to Identify Activators of 5'UTR Stem-Loop Driven Alpha-Synuclein mRNA Translation in H4 Neuroglioblastoma Cells. [Related pubchem assays: 1829 (Project Summary), 1814 (Primary HTS)]. It counts as functional.
Test [9] in a line: human group III sPLA2 inhibitors, dose response, biochemical, QFRET, IC50 (AID 743457).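 Note: green fluorescence rise as the enzyme cleaves BODIPY PC-A2 in liposomes; potency for inhibition of the enzyme.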
Test [10] has as its target Dual specificity protein phosphatase 3 (Homo sapiens, UniProt P51452). Put plainly: SAR VHR1 Fluorescent Assay for In Vitro dose response studies Set 2. [Related pubchem assays (depositor defined):AID1654, AID1661, AID1878]. It counts as functional.
A short description of test [11]: Luminescence-based dose response cell-based high throughput screening assay for cytotoxic compounds using the IEC-6 intestinal epithelial cell line. [Related pubchem assays: 1858 (Summary AID.), 1825 (Counterscreen.), 1907 (Confirmation screen.)]. It counts as functional. A general note: Counterscreens check selectivity or assay interference.
Test [12] concerns the target Luciferin 4-monooxygenase (Photinus pyralis, UniProt P08659). Put plainly: Counter Screen for Luciferase-based Assay Positives. [Related pubchem assays: 620, 618, 411 ].
Test [13] concerns the target Peroxisome proliferator-activated receptor gamma/Nuclear receptor coactivator 1 (Homo sapiens, UniProt P37231). Put plainly: TR-FRET dose response biochemical High Throughput Screening assay for agonists of the steroid receptor coactivator 1 (SRC-1) recruitment by the peroxisome proliferator-activated receptor gamma (PPAR gamma): non-selective agonists. [Related pubchem assays (depositor defined):AID1300, AID1808, AID504735, AID631]. It counts as protein assay. Background: Time-resolved FRET reads energy transfer from a long-lived donor to a nearby acceptor.

Test [14] has as its target Peroxisome proliferator-activated receptor gamma/Nuclear receptor coactivator 2 (Homo sapiens, UniProt P37231). The experiment in a line: TR-FRET dose response biochemical High Throughput Screening assay for agonists of the steroid receptor coactivator 2 (SRC-2) recruitment by the peroxisome proliferator-activated receptor gamma (PPAR gamma): non-selective agonists. [Related pubchem assays: 1297, 1032 ]. Format: functional.

The test system of a further test is HT-1080. The experiment in a line: cytotoxicity in HT1080 fibrosarcoma cells, cell-based, fluorescence readout (AID 620). Format: functional. The conditions noted are these: Homo sapiens.
Test [15] deals with Peroxisome proliferator-activated receptor gamma/Nuclear receptor coactivator 3 (Homo sapiens, UniProt P37231). The experiment in a line: TR-FRET dose response biochemical High Throughput Screening assay for agonists of the steroid receptor coactivator 3 (SRC-3) recruitment by the peroxisome proliferator-activated receptor gamma (PPAR gamma): non-selective agonists. [Related pubchem assays: 1301 (Confirmation screen.), 1048 (Primary screen.)]. Format: functional.

For a further test, the system named is HeLa. The experiment in a line: Cytotoxicity counterscreen assay for transcriptional activators of heat shock protein 70 (Hsp70). [Related pubchem assays: 1203, 1252 ]. It counts as functional. The conditions noted are these: Homo sapiens.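 Note: cells exposed to compound for 16 hours before readout.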
Test [16] concerns the target Acyl-homoserine lactone acylase PvdQ (Pseudomonas aeruginosa (strain LESB58), UniProt Q9I194). Put plainly: P. aeruginosa PvdQ acylase inhibitors, dose response, biochemical, fluorescence, plate reader and imaging, cherry-picks (AID 493231).
Test [17] can be described thus: Luminescence Cell-Based Dose Response HTS to Identify Inhibitors of 5'UTR Stem-Loop Driven Prion Protein mRNA Translation in H4 Neuroglioblastoma Cells. [Related pubchem assays: 1827 (Project Summary), 1813 (Primary HTS)]. Format: functional.
For test [18], the target named is Lysosomal acid glucosylceramidase (Homo sapiens, UniProt P04062). The experiment in a line: Dose response cell-based high throughput screening assay to identify enhancers of beta-glucosidase activity. [Related pubchem assays: 784 ]. It counts as functional.
Test [19] can be described thus: HepG2 cell cytotoxicity, dose response, cytotoxicity control, plate reader, cherry-pick, antagonist series (AID 743416). It counts as functional, cell-based.
A short description of test [20]: LGR2 antagonists, dose response, cell-based, HEK293, CRE-luciferase reporter, cherry pick, set 2 (AID 743343).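 Note: transfected cells were stimulated with diluted bursicon conditioned medium after compound addition.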 It counts as functional.
Test [21] can be described thus: HEK293 cell cytotoxicity, dose response, cytotoxicity control, plate reader, cherry-picked samples (AID 743446). Format: functional, cell-based.
The target in test [22] is FAD-linked sulfhydryl oxidase ALR (Homo sapiens, UniProt P55789). The experiment in a line: inhibitors of human ALR sulfhydryl oxidase, dose response, biochemical, H2O2 detection, luminescence, cherry-pick (AID 493248).
Another test relates to HEK293. Put plainly: inhibitors of LMP1-driven NF-kB reporter, dose response, cell-based, HEK293, luciferase, cherry-pick (AID 588343). Format: functional. The conditions noted are these: Homo sapiens.
Test [23] in a line: inhibitors of SNCA 5'UTR-driven reporter translation, confirmation, H4 neuroglioma cells, luminescence (AID 1988). It counts as functional, cell-based.
A short description of test [24]: MC4R antagonists, dose response, counter-screen for LGR2 antagonist project, cell-based, plate reader, cherry pick (AID 743444).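 Note: transfected HEK 293 cells stimulated with alpha-MSH peptide; potency of inhibitors of the alpha-MSH evoked signal.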 It counts as functional.
The nature of test [25]: A549 cell cytotoxicity, dose response, cytotoxicity control, plate reader, cherry-pick, antagonist series (AID 743412). Format: functional, cell-based.

With `COc1ccc(Cl)cc1NC(=O)c1ocnc1C`, the IC50 (commonly the concentration needed to halve the response being measured) was > 109 µM (not active) against Estrogen receptor beta [1], 8.77 µM (active) on Estrogen receptor beta [2] and 24.9 µM (active) at Estrogen receptor.

Take `O=C(NCc1ccccc1)NC1(C(=O)N2CCN(c3ccccc3)CC2)CCCCC1`: the EC50 – broadly, the concentration needed to bring the measured effect to its halfway point – in [3] is given as > 100 µM (not active).

In the case of `CCOc1ccc(N2C(=O)c3ccc(C(=O)OCC(=O)N(CC)C4CCS(=O)(=O)C4)cc3C2=O)cc1` (centres undefined), the IC50 in [4] is > 100 µM (active).

For `Cc1ccc2c(C)nc(Nc3nc(O)cc(CSc4nc5ccccc5[nH]4)n3)nc2c1`, the AC50 (in general, the concentration at which the activity in the assay is half-maximal) on Cytochrome P450 2C9 was 100 nM (inconclusive); in the test with INS1, 61.7 µM (active). Further, in the test with H9c2, the IC50 was > 79 µM (inactive). For the same compound, in test [3], the EC50 was 82.2 µM (not active).

For the compound `Cc1ccc(NC(S)=NNC(=O)c2nn(C)c(C)c2Cl)cc1`, the values for the EC50 (in [5]; in the test with H4; in test [8]) were 12 µM (active), 10.9 µM (active) and 6.19 µM (active), respectively. In addition, the IC50 in [6] is > 100 µM (inactive); in test [7], > 100 µM (inactive); in [9] it was > 122 µM (inactive); in test [10], > 100 µM (inactive).

For `CN1/C(=C\C=C\C2=[N+](C)c3ccc4ccccc4c3C2(C)C)C(C)(C)c2ccccc21.[O-][Cl+3]([O-])([O-])[O-]`, in [11], the IC50 is 761 nM (active). The EC50 in test [12] was 7.77 µM (active); in test [13], 13.4 µM (inactive); in test [14] it was 8.19 µM (active); with HT-1080, > 50 µM (not active); in test [15], > 79.4 µM (not active).

For `O=C1NC(=O)C2(COC3(CCCC3)OC2)S1`, in the test on HeLa, the CC50 – broadly, the concentration giving 50% cytotoxicity – is listed as > 99 µM (not active).

As for `COc1ccc(CNCc2cccc(Cl)c2)cc1`, the AC50 in [16] is 6.75 µM (active).

As for `CN(C)c1ccc(-c2nc3ccccc3n2C)cc1`, the concentration giving a half-maximal response (EC50) in [17] was 12.7 µM (active); in test [18], > 50 µM (not active); in test [23], 7.88 µM (active). In addition, the AC50 in test [19] is > 52 µM (inactive); in [20] it was 4.7 µM (active); in [21], 32.2 µM (active); in [22], 6.13 µM (active); with HEK293 it was 2.11 µM (active); in test [24] it was 4.64 µM (active). Besides, in test [25], the AC50 is 38.2 µM (active).

`O=C1CC(=O)N(c2ccc3c(c2)OCO3)C(=O)N1`: the half-maximal effective concentration (EC50) in [18] is reported as > 50 µM (not active).

For the compound `COc1ccc(OC)c(C(=S)NCc2ccc(F)c(C(F)(F)F)c2)c1`, the concentration for half-maximal inhibition (IC50) was 15.5 µM (active) in [7] and 60.8 µM (active) in [10].

On to `N#CCN(N=Nc1ccccc1)c1ccccc1`, for which the AC50 in test [16] was 9.41 µM (active).

On to `COc1ccc(/N=C/C2=C(O)OCC2)cc1`, for which the IC50 in test [4] was > 100 µM (active).
